Source: ChEMBL document CHEMBL1201862, “PubChem BioAssay data set” (2004)
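All cell lines were grown in 96-well plates and treated with compound for 48 hours. At the GI50, growth is halved.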 Active and inactive are the calls of the source. Cut-off read from the data, not from the text of the source: active = GI50 up to about 1.1 µM and inactive = higher.

Key:
Assay in all cases: NCI-60 cell line screen, 48 h
SF-539 = test system: SF-539
DU-145 = test system: DU-145
HT-29 = test system: HT-29
OVCAR-5 = test system: OVCAR-5
SK-MEL-5 = test system: SK-MEL-5
TK-10 = test system: TK-10
NCI-H522 = test system: NCI-H522
OVCAR-8 = test system: OVCAR-8
ACHN = test system: ACHN
PC-3 = test system: PC-3
COLO 205 = test system: COLO 205
UACC-62 = test system: UACC-62
SF-268 = test system: SF-268
MDA-N = test system: MDA-N
NCI/ADR-RES = test system: NCI/ADR-RES
NCI-H460 = test system: NCI-H460
MCF7 = test system: MCF7
UACC-257 = test system: UACC-257
NCI-H226 = test system: NCI-H226
RXF 393 = test system: RXF 393

Measured: GI50

COc1ccc2cc1Oc1ccc(cc1)CC1c3cc(OC)c(cc3CCN1C)Oc1c(OC)c(OC)cc3c1C(C2)N(C)CC3 (centres undefined)
inactive: SF-539 8.95 µM | DU-145 12.6 µM | HT-29 8.79 µM | OVCAR-5 34.2 µM | SK-MEL-5 6.79 µM | TK-10 10.8 µM | NCI-H522 9.89 µM | OVCAR-8 12.4 µM | ACHN 9.57 µM | PC-3 11.9 µM | COLO 205 2.49 µM | UACC-62 12.8 µM | SF-268 12.9 µM | MDA-N 10.5 µM | NCI/ADR-RES 14 µM | NCI-H460 10.2 µM | MCF7 14.6 µM | UACC-257 6.75 µM | NCI-H226 16.9 µM

C=C(C)C1CC2(C)C(C)CC(OC(=O)/C(C)=C\C)CC2C(OC(=O)/C(C)=C\C)C1O (centres undefined)
inactive: SF-539 > 100 µM | DU-145 66.8 µM | HT-29 35.8 µM | OVCAR-5 > 100 µM | SK-MEL-5 15.6 µM | TK-10 > 100 µM | NCI-H522 32.7 µM | OVCAR-8 > 100 µM | ACHN 32.9 µM | PC-3 46.6 µM | COLO 205 22.1 µM | UACC-62 84.5 µM | SF-268 66.4 µM | MDA-N 55.8 µM | NCI/ADR-RES > 100 µM | NCI-H460 45.1 µM | MCF7 41.2 µM | UACC-257 89.1 µM | NCI-H226 > 100 µM

CC(C)CCNC(=O)c1ccc(CNC(=O)/C=C/c2ccc(-c3ccccc3[N+](=O)[O-])o2)cc1
inactive: DU-145 64.9 µM | RXF 393 > 100 µM | OVCAR-5 81.8 µM | SK-MEL-5 18.1 µM | OVCAR-8 26.6 µM | ACHN 53.2 µM | PC-3 > 100 µM | COLO 205 > 100 µM | UACC-62 16 µM | SF-268 18.6 µM | MDA-N 89.5 µM | NCI/ADR-RES 28.2 µM | NCI-H460 > 100 µM | MCF7 68.5 µM | UACC-257 47 µM | NCI-H226 21.9 µM

CCN(CC)COC(=S)S
inactive: SF-539 90.6 µM | DU-145 54.6 µM | HT-29 39 µM | OVCAR-5 > 100 µM | SK-MEL-5 21.6 µM | TK-10 > 54 µM | NCI-H522 3.61 µM | OVCAR-8 42.4 µM | ACHN > 100 µM | PC-3 33.3 µM | COLO 205 78 µM | UACC-62 > 83 µM | SF-268 > 78 µM | MDA-N > 63.2 µM | NCI/ADR-RES > 88.1 µM | NCI-H460 30.1 µM | MCF7 > 100 µM | UACC-257 27.5 µM | NCI-H226 > 100 µM

CCOC(=O)CCCN
inactive: DU-145 > 100 µM | HT-29 > 100 µM | RXF 393 > 100 µM | OVCAR-5 > 100 µM | SK-MEL-5 > 100 µM | TK-10 > 100 µM | NCI-H522 > 100 µM | OVCAR-8 > 100 µM | ACHN > 100 µM | PC-3 > 100 µM | COLO 205 > 100 µM | SF-268 > 100 µM | MDA-N > 100 µM | NCI/ADR-RES > 100 µM | NCI-H460 > 100 µM | MCF7 > 100 µM | UACC-257 > 100 µM | NCI-H226 > 100 µM

COc1cc(S(=O)(=O)Nc2ccc(-c3csc(N4C(=O)C(C)SC4c4ccccc4O)n3)cc2)ccc1Cl (centres undefined)
inactive: SF-539 34.8 µM | DU-145 41.3 µM | HT-29 56.9 µM | OVCAR-5 95.1 µM | SK-MEL-5 32.1 µM | NCI-H522 18.3 µM | OVCAR-8 40.9 µM | ACHN 65.8 µM | PC-3 29.9 µM | COLO 205 25.2 µM | UACC-62 31 µM | SF-268 21.3 µM | MDA-N 28.6 µM | NCI/ADR-RES > 100 µM | MCF7 35.2 µM | NCI-H226 28.6 µM

CCc1n[nH]c(=O)n1NC(=O)c1ccccc1C(=O)O
inactive: SF-539 > 100 µM | DU-145 > 100 µM | HT-29 > 100 µM | RXF 393 > 100 µM | OVCAR-5 > 100 µM | SK-MEL-5 > 100 µM | TK-10 > 100 µM | NCI-H522 > 100 µM | OVCAR-8 > 100 µM | ACHN > 100 µM | PC-3 > 100 µM | COLO 205 > 100 µM | UACC-62 > 100 µM | SF-268 > 100 µM | MDA-N > 100 µM | NCI/ADR-RES > 100 µM | MCF7 > 100 µM | UACC-257 > 100 µM

COc1ccc2o/c(=N\c3ccc(F)cc3)c(C(N)=O)cc2c1
inactive: DU-145 > 100 µM | HT-29 > 100 µM | RXF 393 12.4 µM | OVCAR-5 > 100 µM | SK-MEL-5 > 100 µM | TK-10 21.6 µM | NCI-H522 28.9 µM | OVCAR-8 17.8 µM | ACHN 30.5 µM | PC-3 > 100 µM | COLO 205 > 100 µM | UACC-62 35.3 µM | SF-268 43 µM | MDA-N > 100 µM | NCI/ADR-RES 30.2 µM | NCI-H460 > 100 µM | MCF7 56.8 µM | UACC-257 > 100 µM | NCI-H226 36.6 µM

Oc1ccc2c(c1)OCC(O)(c1ccccc1O)C2 (centres undefined)
inactive: SF-539 > 100 µM | DU-145 > 100 µM | HT-29 > 100 µM | RXF 393 > 100 µM | OVCAR-5 > 100 µM | SK-MEL-5 > 100 µM | TK-10 > 100 µM | OVCAR-8 > 100 µM | ACHN > 100 µM | PC-3 > 100 µM | COLO 205 > 100 µM | UACC-62 > 100 µM | SF-268 > 100 µM | MDA-N > 100 µM | NCI/ADR-RES > 100 µM | NCI-H460 > 100 µM | MCF7 > 100 µM | UACC-257 > 100 µM | NCI-H226 > 100 µM

NC(=O)NC(=O)Nc1ccc(Br)cc1
inactive: SF-539 > 17.3 µM | DU-145 > 100 µM | HT-29 3.46 µM | OVCAR-5 > 21.1 µM | SK-MEL-5 7.67 µM | TK-10 > 35.9 µM | NCI-H522 > 25.9 µM | OVCAR-8 > 13.7 µM | ACHN > 9.62 µM | PC-3 23.9 µM | COLO 205 11.3 µM | UACC-62 2.92 µM | SF-268 > 6.93 µM | MDA-N 50.9 µM | NCI/ADR-RES > 30.8 µM | NCI-H460 > 8.61 µM | MCF7 5.45 µM | UACC-257 > 27.1 µM | NCI-H226 21.5 µM

Cc1cc(S(=O)(=O)Nc2nc3cc(-c4ccc(Cl)cc4)sc3c(=O)n2N)c(S)cc1Cl
inactive: DU-145 37.2 µM | HT-29 54.5 µM | RXF 393 37.2 µM | OVCAR-5 44.2 µM | SK-MEL-5 51.1 µM | TK-10 73.6 µM | NCI-H522 62.4 µM | OVCAR-8 50.2 µM | ACHN 26.5 µM | PC-3 63.2 µM | COLO 205 17 µM | UACC-62 31.7 µM | SF-268 86.3 µM | MDA-N 53.8 µM | NCI/ADR-RES 52.4 µM | NCI-H460 36.6 µM | MCF7 44.7 µM | UACC-257 65 µM

CSc1c(C#N)c2n(c3ccccc3[n+]2C)c2ncccc12
inactive: DU-145 13.9 µM | HT-29 26.7 µM | RXF 393 17.9 µM | OVCAR-5 23.2 µM | SK-MEL-5 12.9 µM | NCI-H522 19.5 µM | OVCAR-8 22.3 µM | ACHN 18.7 µM | PC-3 19.1 µM | COLO 205 13.8 µM | UACC-62 17.6 µM | SF-268 29.4 µM | MDA-N 21.2 µM | NCI/ADR-RES 28.4 µM | NCI-H460 15.7 µM | MCF7 15 µM | NCI-H226 16.2 µM

CC1=CCC[C@]2(C)C1=CC(=O)O[C@H]2c1ccoc1
inactive: DU-145 > 100 µM | HT-29 > 100 µM | RXF 393 > 100 µM | OVCAR-5 > 100 µM | SK-MEL-5 > 100 µM | TK-10 > 100 µM | NCI-H522 > 100 µM | OVCAR-8 > 100 µM | ACHN > 100 µM | PC-3 > 100 µM | COLO 205 > 100 µM | UACC-62 > 100 µM | SF-268 > 100 µM | MDA-N > 100 µM | NCI/ADR-RES > 100 µM | NCI-H460 > 100 µM | MCF7 > 100 µM | UACC-257 > 100 µM | NCI-H226 > 100 µM

O=C(Nc1ccc(Cl)cc1)C(=O)C1=C(O)c2ccccc2OC1
inactive: SF-539 > 100 µM | DU-145 > 100 µM | HT-29 > 100 µM | OVCAR-5 > 100 µM | SK-MEL-5 > 100 µM | TK-10 > 100 µM | NCI-H522 > 100 µM | OVCAR-8 > 100 µM | ACHN > 100 µM | PC-3 > 100 µM | COLO 205 > 100 µM | UACC-62 > 100 µM | SF-268 > 100 µM | MDA-N > 100 µM | NCI/ADR-RES > 100 µM | NCI-H460 > 100 µM | MCF7 > 100 µM | UACC-257 > 100 µM | NCI-H226 > 100 µM

CCOC(=O)c1ccc(C(=O)/C(C(=O)OC(C)(C)C)=C2\CCCN2C)n1C
inactive: SF-539 > 100 µM | DU-145 > 100 µM | HT-29 45.2 µM | RXF 393 > 100 µM | OVCAR-5 > 100 µM | SK-MEL-5 21.3 µM | TK-10 > 100 µM | OVCAR-8 80.4 µM | ACHN 73.5 µM | PC-3 73.1 µM | COLO 205 96.8 µM | UACC-62 44.2 µM | SF-268 > 100 µM | MDA-N 58.3 µM | NCI/ADR-RES 34.6 µM | NCI-H460 94.6 µM | MCF7 55.8 µM | UACC-257 54 µM | NCI-H226 > 100 µM
